Assay results taken from ChEMBL document CHEMBL3507680, “University of Dundee, Gates Library screen for HepG2 cell viability”.

Experiment: Human HepG2 cell viability assay in 384 well format
Assay type: toxicity, cell-based
Parameters: dose 125 nL, time 70.5 hour; concentration not given beside the values
Settings: HepG2 cells, read-out: Inhibition

Question: Which cytotoxicity at 70.5 h does the source give for `O=C1CCCN1Cc1nnc2n1CCCN(C(=O)c1ccc[nH]1)C2` here?
Answer: 5.33%

Question: For `CC(C)CCS(=O)(=O)N1CCCC(c2nncn2C(C)C)C1` (stereo not given), which cytotoxicity at 70.5 h is on record?
Answer: -33.9%

Question: With `COCCO[C@H]1COCCN(Cc2ccc(OC)cc2)C1` as the compound, how does the cytotoxicity at 70.5 h read?
Answer: 8.32%

Question: With `CCOc1ccccc1N(C)Cc1nccn1C` as the compound, how does the cytotoxicity at 70.5 h read?
Answer: 4.63%

Question: With `c1cnc(N2CCC3(COCc4cnc(-c5cccnc5)nc43)C2)nc1` (stereo not given) as the compound, how does the cytotoxicity at 70.5 h read?
Answer: 19.5%

Question: For `CC(C)(C)CC(=O)N1CC[C@H]2NC(=O)N(Cc3ccccc3)C(=O)[C@H]21`, which cytotoxicity at 70.5 h is on record?
Answer: -4.69%

Question: Which cytotoxicity at 70.5 h does the source give for `CCn1cnnc1C1CCN(C(=O)c2ccc3cc[nH]c3c2)CC1` here?
Answer: 5.48%

Question: For `O=C(c1cc2c(s1)CCC2)N1CCCC(c2cnccn2)C1` (stereo not given), which cytotoxicity at 70.5 h is on record?
Answer: -17%

Question: Which cytotoxicity at 70.5 h does the source give for `CCC(C)(C)N(C)CCOc1cccc(S(C)(=O)=O)c1` here?
Answer: -3.09%

Question: With `CCNC(=O)NC(C)(C)C(=O)NCc1cccc(N2CC=CC2)c1` as the compound, how does the cytotoxicity at 70.5 h read?
Answer: 2.33%

Question: For `CCN(Cc1ccc(F)c(F)c1)Cc1nc2c(cnn2C)c(=O)[nH]1`, which cytotoxicity at 70.5 h is on record?
Answer: -4.48%

Question: With `CC(C)(O)CCc1cccc(C(=O)NCc2cnn3cccnc23)c1` as the compound, how does the cytotoxicity at 70.5 h read?
Answer: -4.68%

Question: With `O=C(NCCNc1ncccn1)NCc1cccc(OC(F)F)c1` as the compound, how does the cytotoxicity at 70.5 h read?
Answer: 18.9%

Question: For `Cc1ccc(C(=O)N2CCC(c3nccn3Cc3ccncc3)CC2)s1`, which cytotoxicity at 70.5 h is on record?
Answer: -8.45%

Question: Which cytotoxicity at 70.5 h does the source give for `FC(F)Oc1ccccc1CN1CCCC(c2nccn2CC2CC2)C1` (stereo not given) here?
Answer: -1.02%

Question: Which cytotoxicity at 70.5 h does the source give for `CCOC(=O)CC1CCCCN1C(=O)c1cc(C)on1` (stereo not given) here?
Answer: -8.65%

Question: Which cytotoxicity at 70.5 h does the source give for `CCn1c(N)nc2cc(C(=O)N3CCN(c4nccs4)CC3)cnc21` here?
Answer: -6.84%

Question: Which cytotoxicity at 70.5 h does the source give for `Cc1ccc(CN2CC[C@H]3OCC[C@@]3(C(=O)N3CCCO3)C2)o1` here?
Answer: 2.99%

Question: Which cytotoxicity at 70.5 h does the source give for `CCc1ncc2c(n1)CN(C(=O)CNC(=O)c1ccccc1)C2` here?
Answer: 25.5%

Question: Which cytotoxicity at 70.5 h does the source give for `CN1CCOC(CNC(=O)C2(c3ccccc3)CCC2)C1` (stereo not given) here?
Answer: -5.1%

Question: With `Cc1cccc(CN2C[C@@H]3CN(C(=O)c4ccnnc4)C[C@@H]3C2=O)c1` as the compound, how does the cytotoxicity at 70.5 h read?
Answer: -2.38%

Question: For `CCO[C@@H]1CC[C@H]2[C@H]1OCCN2CCOCc1ccccc1`, which cytotoxicity at 70.5 h is on record?
Answer: -17.9%

Question: For `O=C(CC1CCCC1)N1CC[C@H]2[C@H]1CCN2c1nncs1`, which cytotoxicity at 70.5 h is on record?
Answer: 19.9%

Question: For `Cc1ccc(C(=O)NS(=O)(=O)c2c(Cl)cccc2Cl)c(=O)[nH]1`, which cytotoxicity at 70.5 h is on record?
Answer: -5.05%

Question: For `Cc1cc(N2CCC3(CCC(=O)N(CCCO)C3)CC2)nc(N(C)C)n1`, which cytotoxicity at 70.5 h is on record?
Answer: -2.5%

Question: With `COc1ccc(CN2C[C@@H](F)[C@@H](OCc3nc4cnccc4[nH]3)C2)cn1` as the compound, how does the cytotoxicity at 70.5 h read?
Answer: -4.62%

Question: With `CC(C)(C)c1coc([C@@H]2COCCN2Cc2cnc3ccccc3c2)n1` as the compound, how does the cytotoxicity at 70.5 h read?
Answer: 0.0852%

Question: With `C=C(C)CN(CC)S(=O)(=O)c1c(F)cc(NC(C)=O)cc1F` as the compound, how does the cytotoxicity at 70.5 h read?
Answer: -3.3%

Question: For `Cc1cnc2c(c1NCc1ccc(F)cc1)c(=O)n(C)c(=O)n2C`, which cytotoxicity at 70.5 h is on record?
Answer: 12.7%

Question: For `CC(=O)N1CC=C(n2c(=O)[nH]c3ccccc32)CC1`, which cytotoxicity at 70.5 h is on record?
Answer: -5.58%

Question: With `COC(=O)CCNC(=O)c1cc(Br)c2c(c1)OCCO2` as the compound, how does the cytotoxicity at 70.5 h read?
Answer: -10.5%

Question: With `O=C(NCCN1CCC(c2cccs2)CC1)Nc1cccs1` as the compound, how does the cytotoxicity at 70.5 h read?
Answer: -3.14%

Question: With `Cc1n[nH]cc1CNCc1ccnc(OCC(F)(F)F)c1` as the compound, how does the cytotoxicity at 70.5 h read?
Answer: -7.14%

Question: With `c1csc(CN2CCc3ncnc(C4CCOC4)c3CC2)n1` (stereo not given) as the compound, how does the cytotoxicity at 70.5 h read?
Answer: -4.88%

Question: Which cytotoxicity at 70.5 h does the source give for `CC(=O)N1CCCC(C(=O)NCCc2nc(Cc3ccccc3)no2)C1` (stereo not given) here?
Answer: -13.3%

Question: Which cytotoxicity at 70.5 h does the source give for `CC(O)CNCc1c[nH]nc1-c1cc2ccccc2o1` (stereo not given) here?
Answer: 17.5%

Question: Which cytotoxicity at 70.5 h does the source give for `CC(C)N1CCC(NCc2cccnc2N(C)C)CC1` here?
Answer: 2.11%

Question: For `COC(=O)CCNC(=O)c1c[nH]cc1-c1ccccc1OC`, which cytotoxicity at 70.5 h is on record?
Answer: -3.42%

Question: For `Cc1ccc(OCC(=O)NC2CCN(S(C)(=O)=O)CC2)cc1`, which cytotoxicity at 70.5 h is on record?
Answer: -1.26%

Question: With `CN1Cc2ccccc2CC1C(=O)N1CCN(CCS(C)(=O)=O)CC1` (stereo not given) as the compound, how does the cytotoxicity at 70.5 h read?
Answer: 5.5%

Question: With `c1nc(CN2CCCC(Cc3ccc(NC4CCCC4)nn3)C2)c[nH]1` (stereo not given) as the compound, how does the cytotoxicity at 70.5 h read?
Answer: 0.181%

Question: Which cytotoxicity at 70.5 h does the source give for `Cc1cc2cccc(NC(=O)N3CCC(N4CCSCC4)CC3)c2o1` here?
Answer: -11%

Question: Which cytotoxicity at 70.5 h does the source give for `Cc1ccc(OCc2occc2C(=O)N2CCCCC(N)C2)cc1` (stereo not given) here?
Answer: -2.2%

Question: Which cytotoxicity at 70.5 h does the source give for `CCNc1nc(-c2cccnc2)c(-c2ccnc(NCCO)n2)s1` here?
Answer: -13.3%

Question: For `Cc1nc(CN2CCN(C(=O)C(C(C)C)n3cncn3)CC2)cs1` (stereo not given), which cytotoxicity at 70.5 h is on record?
Answer: -1.55%

Question: Which cytotoxicity at 70.5 h does the source give for `Cc1nn(C)c(C)c1C1CCCN1c1ncnc2c1CCC2` (stereo not given) here?
Answer: 1.18%

Question: Which cytotoxicity at 70.5 h does the source give for `CN(C)C1(CNc2ncc(Br)cn2)CCOCC1` here?
Answer: -10.2%

Question: Which cytotoxicity at 70.5 h does the source give for `CCOCc1ccccc1NC(=O)NCC(C)(O)c1cccs1` (stereo not given) here?
Answer: -1.02%

Question: With `COC1CC2(CCN(Cc3ccc4c(c3)OCO4)CC2)C1` as the compound, how does the cytotoxicity at 70.5 h read?
Answer: -12.6%

Question: With `Cc1cccc(Nc2cc(C3CCCN(CC(N)=O)C3)ccn2)n1` (stereo not given) as the compound, how does the cytotoxicity at 70.5 h read?
Answer: 22.5%

Question: For `CC(C)(C)c1nc(CN2CCOC(Cn3cncn3)C2)cs1` (stereo not given), which cytotoxicity at 70.5 h is on record?
Answer: 1.47%

Question: Which cytotoxicity at 70.5 h does the source give for `COC(=O)c1cc2c(=O)n(C3CC3)ccc2nc1C` here?
Answer: 2.32%

Question: Which cytotoxicity at 70.5 h does the source give for `Cc1ccc(CN(C)CC2(O)CCCN(C)C2)o1` (stereo not given) here?
Answer: -2.94%

Question: With `COc1ncccc1NC(=O)C1CCN(S(C)(=O)=O)CC1` as the compound, how does the cytotoxicity at 70.5 h read?
Answer: -9.19%

Question: Which cytotoxicity at 70.5 h does the source give for `Cc1nc(C(=O)N(C)CC2CCCO2)nn1-c1ccccc1C(C)C` (stereo not given) here?
Answer: -5.46%

Question: For `O=C(c1nn[nH]c1Nc1ccc(Cl)cc1)N1CCCCCC1`, which cytotoxicity at 70.5 h is on record?
Answer: -10.3%

Question: With `CC(C)c1nc(CN(CC(N)=O)C(C)C)cs1` as the compound, how does the cytotoxicity at 70.5 h read?
Answer: -2.05%

Question: For `O=c1c(CN2CCOCC2)coc2ccc(Cl)cc12`, which cytotoxicity at 70.5 h is on record?
Answer: -8.39%

Question: Which cytotoxicity at 70.5 h does the source give for `CCOc1cc(C(=O)N2CCCC(c3noc(C(C)C)n3)C2)ccn1` (stereo not given) here?
Answer: -3.39%

Question: Which cytotoxicity at 70.5 h does the source give for `Cc1csc(C2(NCc3nc(-c4ccco4)oc3C)CCCC2)n1` here?
Answer: 22.8%

Question: With `N#CCc1ccc(OCC(=O)NS(=O)(=O)c2ccc(Br)s2)cc1` as the compound, how does the cytotoxicity at 70.5 h read?
Answer: 4.36%

Question: For `CNc1nc2c(c(C(=O)N3CCCC3)n1)CN(Cc1ccco1)CC2`, which cytotoxicity at 70.5 h is on record?
Answer: -3.76%

Question: For `CS(=O)(=O)N1Cc2ccccc2C2(CCN(C(=O)c3ccno3)CC2)C1`, which cytotoxicity at 70.5 h is on record?
Answer: 7.95%

Question: Which cytotoxicity at 70.5 h does the source give for `COCCN1C(=O)C[C@H]2[C@H]1CCN2Cc1cccc(C#N)c1` here?
Answer: -19.1%

Question: Which cytotoxicity at 70.5 h does the source give for `O=C(NCc1nncn1C1CCCCC1)C1CNCCO1` (stereo not given) here?
Answer: -6.16%

Question: For `Cc1ccccc1OCC(=O)NCC(c1ccc(N(C)C)cc1)N(C)C` (stereo not given), which cytotoxicity at 70.5 h is on record?
Answer: 29.2%

Question: With `CCN(CC)CC(=O)Nc1ccc(-n2ccc(C(N)=O)n2)cc1` as the compound, how does the cytotoxicity at 70.5 h read?
Answer: 25.3%

Question: For `CN(CC(=O)N1CCCN(Cc2cscn2)CC1)c1cnccn1`, which cytotoxicity at 70.5 h is on record?
Answer: -5.45%

Question: For `COc1ccc(C2CCN(S(=O)(=O)CCCC#N)CC2)cc1`, which cytotoxicity at 70.5 h is on record?
Answer: -9.02%

Question: Which cytotoxicity at 70.5 h does the source give for `CN(CC(=O)NCCc1ccccn1)C(=O)c1cccs1` here?
Answer: -19.9%

Question: Which cytotoxicity at 70.5 h does the source give for `CC(C)NC(=O)C(C)S(=O)(=O)c1cc2c(cc1Cl)OCCO2` (stereo not given) here?
Answer: -7.06%

Question: For `CC(=O)N1CCC2(CCN(C(=O)c3ccc(F)c(C(F)(F)F)c3)CC2)C1`, which cytotoxicity at 70.5 h is on record?
Answer: -6.93%

Question: Which cytotoxicity at 70.5 h does the source give for `COCC(=O)N1CC[C@@H]2CN(Cc3cccnc3)S(=O)(=O)[C@@H]2CC1` here?
Answer: -2.46%

Question: Which cytotoxicity at 70.5 h does the source give for `COCCNC(=O)Cn1cc(OCc2ccc(F)cc2)c(=O)cc1CO` here?
Answer: -9.69%

Question: Which cytotoxicity at 70.5 h does the source give for `Cc1nc(CC(=O)N2CCCC2Cn2cccn2)cs1` (stereo not given) here?
Answer: -5%

Question: Which cytotoxicity at 70.5 h does the source give for `N#Cc1ccc(N2CCCC3(CCN(c4cncnc4)C3=O)C2)nc1` (stereo not given) here?
Answer: 7.49%

Question: Which cytotoxicity at 70.5 h does the source give for `O=C1NC2(CCN(C/C=C/c3ccccc3)CC2)CC1c1ccccc1` (stereo not given) here?
Answer: 10.6%

Question: With `CCC(C)CNC(=O)[C@@H]1CCCN1c1nccc(Nc2ccccc2)n1` (stereo not given in full) as the compound, how does the cytotoxicity at 70.5 h read?
Answer: 1.56%

Question: For `Cc1nnc([C@@H]2CC[C@@H]3[C@@H](CCN3S(C)(=O)=O)O2)o1`, which cytotoxicity at 70.5 h is on record?
Answer: -10.9%

Question: With `Cc1nnsc1CN1C[C@@H]2CC[C@H](C1)N(Cc1c(C)noc1C)C2=O` as the compound, how does the cytotoxicity at 70.5 h read?
Answer: -0.902%
